Assay results reported in US8536407B2, “Heat resistant plants and plant tissues comprising a variant adenosine diphosphate glucose pyrophosphorylase small subunit protein and methods of use thereof” (University of Florida Research Foundation, Inc., priority 2008, dated 2013).
Entries after “also recorded” stand apart in the source; their conditions may differ. Where two headings read alike, the source gives them in different places.

Key:
[1] = biological target: T1, maize endosperm ADP-glucose pyrophosphorylase (AGPase) variant BT2-TI/SH2, small subunit BT2 with Thr462 to Ile (TI, SEQ ID NO:2) complexed with wild type SH2 (Zea mays, UniProt P55241+Q947C0, T462I); experiment: Kinetic and allosteric characterization of purified recombinant AGPase, forward direction (BT2-TI/SH2); format: biochemical
T1 sequence (Q947C0 1-475 T462I): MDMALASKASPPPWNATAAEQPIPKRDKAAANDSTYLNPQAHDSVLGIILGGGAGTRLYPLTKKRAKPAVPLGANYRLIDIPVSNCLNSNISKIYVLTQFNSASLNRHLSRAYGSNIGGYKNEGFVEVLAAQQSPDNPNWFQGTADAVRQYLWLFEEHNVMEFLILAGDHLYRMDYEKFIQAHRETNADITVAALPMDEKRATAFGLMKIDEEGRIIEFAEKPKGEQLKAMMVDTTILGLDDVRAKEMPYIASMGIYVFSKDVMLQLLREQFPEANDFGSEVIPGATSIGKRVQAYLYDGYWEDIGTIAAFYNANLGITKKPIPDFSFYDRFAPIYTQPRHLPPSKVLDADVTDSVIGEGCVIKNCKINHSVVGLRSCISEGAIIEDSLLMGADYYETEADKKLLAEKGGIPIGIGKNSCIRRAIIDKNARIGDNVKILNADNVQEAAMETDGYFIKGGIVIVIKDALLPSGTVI
T1 sequence (P55241 46-516): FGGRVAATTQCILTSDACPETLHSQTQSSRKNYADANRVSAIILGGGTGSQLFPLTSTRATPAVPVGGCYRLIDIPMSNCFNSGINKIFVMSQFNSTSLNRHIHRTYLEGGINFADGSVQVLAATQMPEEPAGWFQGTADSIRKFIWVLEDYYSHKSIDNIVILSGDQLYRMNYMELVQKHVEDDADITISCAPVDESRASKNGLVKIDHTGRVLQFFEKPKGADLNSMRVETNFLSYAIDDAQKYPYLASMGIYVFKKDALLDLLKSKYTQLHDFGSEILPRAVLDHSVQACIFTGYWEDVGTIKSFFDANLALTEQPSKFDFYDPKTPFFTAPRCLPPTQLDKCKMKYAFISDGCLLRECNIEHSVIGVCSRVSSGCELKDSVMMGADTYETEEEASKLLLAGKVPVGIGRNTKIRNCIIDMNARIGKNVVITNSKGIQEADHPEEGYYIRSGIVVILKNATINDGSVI
Experimental: (§1) The following steps were conducted at 4° C.
(§2) The reaction was stopped by boiling for 2 min. […] NADH concentration was estimated by absorbance at 340 nm.
A mutant Bt2 library was created by error-prone PCR. The mutational load was ˜2 non-synonymous mutations per clone (Georgelis et al. 2007). The mutants were expressed in E. coli along with a wildtype Sh2 gene. Approximately 50,000 colonies were screened for glycogen production. Ten dark staining colonies were picked. The two darkest staining Bt2 mutants were sequenced. Both had the same non-synonymous mutation resulting in a change of amino acid 462 from threonine to isoleucine (TI). The threonine in that position is absolutely conserved among the higher plant small subunits (data not shown).
Ki's are expressed as mean (95% confidence interval). All other values are expressed as mean±standard deviation.

[2] = biological target: T2, maize endosperm ADP-glucose pyrophosphorylase (AGPase) BT2/SH2, wild type small subunit BT2 complexed with wild type large subunit SH2 (Zea mays, UniProt P55241+Q947C0); experiment: Kinetic and allosteric characterization of purified recombinant AGPase, forward direction (BT2/SH2); format: biochemical
T2 sequence (Q947C0 1-475): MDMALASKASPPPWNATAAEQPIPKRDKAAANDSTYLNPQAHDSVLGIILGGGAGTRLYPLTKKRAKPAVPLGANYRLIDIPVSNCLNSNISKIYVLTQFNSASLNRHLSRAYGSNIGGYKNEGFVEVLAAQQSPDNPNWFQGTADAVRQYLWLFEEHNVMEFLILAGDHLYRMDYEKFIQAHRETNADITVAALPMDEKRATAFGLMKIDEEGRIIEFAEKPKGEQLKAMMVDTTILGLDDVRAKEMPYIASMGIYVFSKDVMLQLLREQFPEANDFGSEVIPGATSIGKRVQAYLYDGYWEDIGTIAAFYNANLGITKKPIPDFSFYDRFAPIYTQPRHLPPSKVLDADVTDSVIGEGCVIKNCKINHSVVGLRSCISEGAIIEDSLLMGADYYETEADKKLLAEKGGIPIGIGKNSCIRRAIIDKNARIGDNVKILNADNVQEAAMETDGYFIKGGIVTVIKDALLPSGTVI
T2 sequence (P55241 46-516): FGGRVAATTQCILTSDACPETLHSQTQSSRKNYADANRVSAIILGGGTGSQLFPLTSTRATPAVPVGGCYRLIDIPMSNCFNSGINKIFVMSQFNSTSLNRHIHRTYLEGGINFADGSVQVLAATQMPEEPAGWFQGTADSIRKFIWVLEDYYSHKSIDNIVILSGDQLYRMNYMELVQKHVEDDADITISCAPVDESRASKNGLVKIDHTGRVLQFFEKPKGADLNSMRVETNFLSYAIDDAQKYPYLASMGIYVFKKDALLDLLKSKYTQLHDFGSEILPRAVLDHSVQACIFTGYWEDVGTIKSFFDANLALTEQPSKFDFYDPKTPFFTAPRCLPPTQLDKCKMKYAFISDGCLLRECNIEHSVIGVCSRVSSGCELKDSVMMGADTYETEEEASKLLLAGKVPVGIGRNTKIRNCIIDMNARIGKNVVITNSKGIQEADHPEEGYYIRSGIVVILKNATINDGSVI
Experimental: as §1, §2
(§3) All other values are expressed as mean±standard deviation.

[3] = tested on: ADP-glucose pyrophosphorylase (AGPase) variant MP-TI/SH2, maize/potato mosaic small subunit MP with the TI mutation (threonine to isoleucine at position …); experiment: Kinetic and allosteric characterization of purified recombinant AGPase, forward direction (MP-TI/SH2); format: biochemical, maize (Zea mays) / potato tuber
Experimental: as §1, §2, §3

[4] = tested on: ADP-glucose pyrophosphorylase (AGPase) MP/SH2, mosaic small subunit MP (first 200 amino acids of maize BT2 and last 275 amino acids of potato tuber small …); conditions: for Km: forward direction, pH 7.4, 37° C.
Experimental: AGPase was desalted by using Zeba Micro Desalt Spin Columns (Pierce) before assaying. AGPase was exchanged into 50 mM HEPES, 5 mM MgCl2, 0.5 mM EDTA and 0.5 mg/mL BSA (for stability).
The reaction was stopped by boiling for 2 min. PPi was estimated by coupling the reaction to a reduction in NADH concentration using 300 μl of coupling reagent. The coupling reagent contained 25 mM imidazole pH 7.4, 4 mM MgCl2, 1 mM EDTA, 0.2 mM NADH, 0.725U aldolase, 0.4U triose phosphate isomerase, 0.6U glycerophosphate dehydrogenase, 1 mM fructose 6-phosphate and 0.8 μg of pyrophosphate dependent phosphofructokinase (PPi-PFK). […] NADH concentration was estimated by absorbance at 340 nm. PPi concentration was calculated by a standard curve developed by using various amounts of PPi instead of AGPase. […] The kinetic constants of AGPase were calculated by Prism 4.0 (Graph Pad, San Diego Calif.).
All other values are expressed as mean±standard deviation. The specific activity of AGPase in the absence of 3-PGA is expressed as a percentage of the specific activity in the presence of 10 mM of 3-PGA (mean±standard error).

[5] = tested on: ADP-glucose pyrophosphorylase (AGPase) MP/SH2, mosaic small subunit MP (first 200 amino acids of maize BT2 and last 275 amino acids of potato tuber small …); conditions: MP/SH2 compared to wildtype BT2/SH2; Cross et al., 2004; Boehlein et al., 2005; cited from earlier work
[6] = specific activity in absence of 3-PGA as percentage of that with 10 mM 3-PGA, mean±standard error
[7] = varying ATP, G-1-P saturating (2 mM), mean±standard deviation

Row | Compound | Ka for 3-PGA (compared with BT2/SH2, in words) ([1]; BT2-TI/SH2 versus BT2/SH2) | Vmax − 3-PGA/Vmax + 3-PGA [2, 6] | Vmax − 3-PGA/Vmax + 3-PGA [3, 6] | Vmax − 3-PGA/Vmax + 3-PGA ([4]; MP/SH2, specific activity in absence of 3-PGA as percentage of that with 10 mM 3-PGA, mean±standard error) | affinity for 3-PGA (in words) ([4]; MP/SH2 compared to BT2/SH2) | affinity for 3-PGA (in words) [5] | kcat (ATP) ([1]; BT2-TI/SH2, varying ATP, G-1-P saturating (2 mM), mean±standard deviation) [s⁻¹] | Km (compared with BT2/SH2, in words) ([1]; BT2-TI/SH2 versus BT2/SH2) | Km ([1]; read-out: Km ATP, BT2-TI/SH2, forward direction, pH 7.4, 37° C., varying ATP, mean±standard deviation) [µM] | Km ([2]; read-out: Km ATP, forward direction, pH 7.4, 37° C., varying ATP, mean±standard deviation) [µM] | kcat (ATP) [2, 7] [s⁻¹] | Km ([3]; forward direction, pH 7.4, 37° C., varying ATP, mean±standard deviation, read-out: Km ATP) [µM] | kcat (ATP) [3, 7] [s⁻¹] | kcat (ATP) ([4]; MP/SH2, varying ATP, G-1-P saturating (2 mM), mean±standard deviation) [s⁻¹] | Km ([4]; read-out: Km ATP, MP/SH2, varying ATP, mean±standard deviation) [µM] | Km ([3]; read-out: Km G-1-P, forward direction, pH 7.4, 37° C., varying G-1-P, mean±standard deviation) [µM] | kcat (G-1-P) ([3]; varying G-1-P, ATP saturating (1 mM), mean±standard deviation) [s⁻¹] | kcat (G-1-P) ([4]; MP/SH2, varying G-1-P, ATP saturating (1 mM), mean±standard deviation) [s⁻¹] | Km ([4]; read-out: Km G-1-P, MP/SH2, varying G-1-P, mean±standard deviation) [µM]
1 | O=C(O)[C@H](O)COP(=O)(O)O [3-PGA] | indistinguishable from BT2/SH2 | (7.2 ± 3.2%) | (24.4 ± 5.3%) | (28.2 ± 3.1%) | increased affinity for 3-PGA; also recorded: a higher affinity for 3-PGA | increased affinity for 3-PGA |  |  |  |  |  |  |  |  |  |  |  |  | 
2 | Nc1ncnc2c1ncn2[C@@H]1O[C@H](COP(=O)(O)OP(=O)(O)OP(=O)(O)O)[C@@H](O)[C@H]1O [ATP] |  |  |  |  |  |  | 29.112 | indistinguishable from BT2/SH2 | 146 | 102 | 43.321 | 112 | 49.031 | 69.337 | 133 |  |  |  | 
3 | O=P(O)(O)O[C@H]1O[C@H](CO)[C@@H](O)[C@H](O)[C@H]1O [G-1-P, glucose-1-P] |  |  |  |  |  |  |  | indistinguishable from BT2/SH2 |  |  |  |  |  |  |  | 59 | 42.880 | 62.655 | 79
